Assay results published in publication PMC10880585 (ACS infectious diseases, 2023).
Where two headings read alike, the source gives them in different places.

Legend:
P. falciparum strain 3D7 [1] = assay: P. falciparum growth inhibition assay; format: cell-based, Plasmodium falciparum; settings: read-out: Pf IC50
P. falciparum DXR [2] = target: T1, P. falciparum DXR (Plasmodium falciparum, UniProt O96693); assay: biochemical
T1 sequence (O96693 73-488): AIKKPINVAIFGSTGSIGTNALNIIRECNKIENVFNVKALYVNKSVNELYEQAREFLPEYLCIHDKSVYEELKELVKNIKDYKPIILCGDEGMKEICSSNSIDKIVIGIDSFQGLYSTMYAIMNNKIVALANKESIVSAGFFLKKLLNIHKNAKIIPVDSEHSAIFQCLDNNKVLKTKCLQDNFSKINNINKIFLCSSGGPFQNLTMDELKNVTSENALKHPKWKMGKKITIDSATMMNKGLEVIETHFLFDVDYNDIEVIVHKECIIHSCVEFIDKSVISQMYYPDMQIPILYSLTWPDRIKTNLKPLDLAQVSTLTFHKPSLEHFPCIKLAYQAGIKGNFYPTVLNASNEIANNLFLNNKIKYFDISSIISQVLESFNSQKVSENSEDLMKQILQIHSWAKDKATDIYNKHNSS

[3] = system: HAD1 mutant P. falciparum strain; assay: Growth inhibition of had1 mutant P. falciparum; format: cell-based, Plasmodium falciparum; settings: had1 mutant vs wild-type 3D7
[4] = following iv dosing; cited from earlier work
P. falciparum strain 3D7 [5] = assay: IPP rescue of P. falciparum growth inhibition; settings: 250 μM IPP added to culture media, 72 h
P. falciparum DXR [6] = target: T1, P. falciparum DXR
HepG2 cells = assay: HepG2 cytotoxicity assay; settings: for IC50: Homo sapiens, HepG2, 24 h, read-out: HepG2 IC50; for cytotoxicity against HepG2: result in words
[7] = Metabolic stability in mouse liver microsomes
[8] = Plasmodium falciparum, 3D7, Erythrocyte, 72 h

## O=C(CCc1ccccc1)N(O)C/C=C/P(=O)(O)O [11c, Sodium Hydrogen [(1E)-3-(N-hydroxy-3-phenylpropanamido)prop-1-en-1-yl]phosphonate]
P. falciparum strain 3D7 [1]; [8]
  IC50: 10800 nM
P. falciparum DXR [2]
  IC50: 1340 nM

## O=CN(O)CCCP(=O)(O)O [compound 1, Fosmidomycin, reference compound]
P. falciparum strain 3D7 [1]; [8]
  IC50: 1020 nM
[3]
  resistance of parasites with elevated intracellular DXP: higher resistance
[4]
  renal excretion: 85%
P. falciparum strain 3D7 [5]
  rescue of treated parasites by IPP: rescued

## CCOP(=O)(/C=C/CN(O)C(=O)Cc1ccccc1)OCC [10b, Diethyl [(1E)-3-(N-Hydroxy-2-phenylacetamido)prop-1-en-1-yl]phosphonate]
P. falciparum strain 3D7 [1]; [8]
  IC50: 337000 nM

## CCOP(=O)(/C=C/CN(O)C(=O)CCCc1ccccc1)OCC [10d, Diethyl [(1E)-3-(N-Hydroxy-4-phenylbutanamido)prop-1-en-1-yl]phosphonate]
P. falciparum strain 3D7 [1]; [8]
  IC50: 31200 nM

## CC(C)(C)C(=O)OCOP(=O)(/C=C/CN(O)C(=O)Cc1ccccc1)OCOC(=O)C(C)(C)C [13b, [({[(2,2-Dimethylpropanoyl)oxy]methoxy}[(1E)-3-(N-hydroxy-2-phenylacetamido)prop-1-en-1-yl]phosphoryl)oxy]-methyl 2,2-Dimethylpropanoate]
P. falciparum strain 3D7 [1]; [8]
  IC50: 304 nM

## O=C(CCCc1ccccc1)N(O)C/C=C/P(=O)(O)O [11d, Sodium Hydrogen [(1E)-3-(N-Hydroxy-4-phenylbutanamido)prop-1-en-1-yl]phosphonate]
P. falciparum strain 3D7 [1]; [8]
  IC50: 4980 nM
P. falciparum DXR [6]; read-out: Pf DXR IC50
  IC50: 898 nM

## N.N.O=C(c1ccccc1)N(O)C/C=C/P(=O)(O)O [compound 11a, Diammonium [(1E)-3-(N-Hydroxy-1-phenylformamido)-prop-1-en-1-yl]phosphonate]
P. falciparum strain 3D7 [1]; [8]
  IC50: 369 nM
[3]
  resistance of parasites with elevated intracellular DXP: resistant
P. falciparum DXR [6]; 11a vs saturated compound 4
  improvement in activity against the enzyme: 2 fold
HepG2 cells
  IC50: > 50000 nM
  cytotoxicity against HepG2: non-toxic
[7]; mouse liver microsomes
  time stable in MLM: over 1 h
P. falciparum strain 3D7 [5]
  rescue of treated parasites by IPP: rescued

## CCOP(=O)(/C=C/CN(O)C(=O)c1ccccc1)OCC [10a, Diethyl [(1E)-3-(N-Hydroxy-1-phenylformamido)prop-1-en-1-yl]phosphonate]
P. falciparum strain 3D7 [1]; [8]
  IC50: > 319000 nM

## CC(C)(C)C(=O)OCOP(=O)(/C=C/CN(O)C(=O)c1ccccc1)OCOC(=O)C(C)(C)C [13a, [({[(2,2-Dimethylpropanoyl)oxy]methoxy}[(1E)-3-(N-hydroxy-1-phenylformamido)-prop-1-en-1-yl]phosphoryl)oxy]-methyl 2,2-dimethylpropanoate]
P. falciparum strain 3D7 [1]; [8]
  IC50: 200 nM
[3]
  resistance of parasites with elevated intracellular DXP: resistant
HepG2 cells
  IC50: > 50000 nM
  cytotoxicity against HepG2: non-toxic
[7]; mouse, liver microsomes, pH 7.4
  half-life at 1 μM: < 5 min
P. falciparum strain 3D7 [5]
  rescue of treated parasites by IPP: rescued

## CC(C)(C)C(=O)OCOP(=O)(/C=C/CN(O)C(=O)CCCc1ccccc1)OCOC(=O)C(C)(C)C [13d, [({[(2,2-Dimethylpropanoyl)oxy]methoxy}[(1E)-3-(N-hydroxy-4-phenylbutanamido)prop-1-en-1-yl]phosphoryl)-oxy]methyl 2,2-Dimethylpropanoate]
P. falciparum strain 3D7 [1]; [8]
  IC50: 4550 nM

## O=C(Cc1ccccc1)N(O)C/C=C/P(=O)(O)O [11b, Sodium Hydrogen [(1E)-3-(N-Hydroxy-2-phenylacetamido)prop-1-en-1-yl]phosphonate]
P. falciparum strain 3D7 [1]; [8]
  IC50: 468 nM
P. falciparum DXR [2]
  IC50: 170 nM

## CC(=O)N(O)CCCP(=O)(O)O [compound 2, FR-900098, reference compound]
P. falciparum strain 3D7 [1]; […], 3 days, PicoGreen
  IC50: 511 nM

## CCOP(=O)(/C=C/CN(O)C(=O)CCc1ccccc1)OCC [10c, Diethyl [(1E)-3-(N-Hydroxy-3-phenylpropanamido)prop-1-en-1-yl]phosphonate]
P. falciparum strain 3D7 [1]; [8]
  IC50: > 293000 nM
